Source: patent US7109175B1, “Specific steady-state R-type CA2+ channel blockers and use thereof” (Universite de Sherbrooke, priority 2000, dated 2006)
“Also recorded” adds a separate entry of the source.

Legend:
R-type Ca^2+ channel [1] = experiment: Fura-2 [Ca]i, rabbit aortic vascular smooth muscle cells; format: cell-based; settings: 10^−9M
Source text: (§1) This sustained increase of Ca^2+ induced by depolarization of the cell membrane or hormones such as PAF, ET-1 and bradykinin is due to the increase of Ca^2+ influx through the R-type Ca^2+ channels at the sarcolemmal membrane and/or the nuclear membrane (Bkaily G., 1994, supra; 1996, supra; 1997a–d, supra). Using Ca^2+ fluorescence probes Fura-2 or Fluo-3 and 2 and three-dimension Ca^2+ imaging techniques (Bkaily G., 1994, supra; 1996, supra; 1997a–d, supra), the effect of hormones and drugs could be easily tested. These two methods are used with single cells of different types as described above.
In another series of experiments we tested the effect of MV8608 (10^−9M) on R-type Ca^2+ channels stimulation-induced sustained increase of total intracellular Ca^2+ by sustained depolarization (FIGS. 15 to 19), by PAF (10^−9M) (FIGS. 16 to 19 and 21 to 22), by ET-1 (10^−9M) (FIGS. 16 and 19) and bradykinin (BK, 10^−6M) (FIGS. 20 and 21), in embryonic chick heart cells (FIGS. 15, 16, 19 and 20), 19-week-old human fetal heart cells (FIGS. 15, 17, 18 and 20), rabbit aortic vascular smooth muscle (VSM) cells (FIGS. 20 and 21), human aortic VSM cell-line (FIG. 23) and freshly isolated (FIG. 22) as well as in freshly isolated aortic endothelial cells (FIG. 22). […]

[2] = system: contraction of rat uterus induced by BK; settings: Calixto et al. 1987; cited from earlier work
R-type Ca^2+ channel [3] = experiment: Fura-2 [Ca]i, freshly isolated human aortic endothelial cells; format: cell-based; settings: 10^−9M
Source text: as §1
(§2) In another series of experiments we tested the effect of MV8608 (10^−9M) on R-type Ca^2+ channels stimulation-induced sustained increase of total intracellular Ca^2+ by sustained depolarization (FIGS. 15 to 19), by PAF (10^−9M) (FIGS. 16 to 19 and 21 to 22), by ET-1 (10^−9M) (FIGS. 16 and 19) and bradykinin (BK, 10^−6M) (FIGS. 20 and 21), in embryonic chick heart cells (FIGS. 15, 16, 19 and 20), 19-week-old human fetal heart cells (FIGS. 15, 17, 18 and 20), rabbit aortic vascular smooth muscle (VSM) cells (FIGS. 20 and 21), human aortic VSM cell-line (FIG. 23) and freshly isolated (FIG. 22) as well as in freshly isolated aortic endothelial cells (FIG. 22).

[4] = system: PAF-induced arterial vasodilatation and venconstriction; experiment: Double-perfused mesenteric bed of the rat
Source text: The inhibitory properties of MV8608 are specific for PAF as the response to ACh (arterial) and AngII (venous) are unaffected by the pregnane-containing moiety.

R-type Ca^2+ channel [5] = experiment: Fura-2 [Ca]i, human fetal heart cells; format: cell-based; settings: 10^−9M, KCl 30 mM, PAF 10^−9M
Source text: These two methods are used with single cells of different types as described above.
as §2

rat paw oedema = experiment: Rat paw oedema; format: in vivo; settings: for des-Arg^9-bradykinin-induced paw oedema: 10 and 100 nmol/paw co-injected, rats treated with LPS
Description: In this experiment (N=5 to 6 animals per group), the anti-oedemagenic action of compounds MV 8608 and MV 8612 against bradykinin and several mediators which are reported to be involved in the inflammatory processes, was evaluated. The procedures used to perform these experiments have been reported elsewhere (Neves et al., 1993, Eur. J. Pharmacol. 243:213–219; Campos et al., 1995, Br. J. Pharmacol. 114:1005–1013; Campos et al., 1996, Br. J. Pharmacol. 117:793–798; Eur. J. Pharmacol. 316:227–286). […] As reported previously, in rats treated […] prior to a systemic injection of LPS, both B1 and B2 kinin selective agonists caused marked oedema formation (FIGS. 37C and D (Campos et al., 1996, supra)).

T-type Ca^2+ current = experiment: Whole-cell voltage clamp, T-type Ca2+ current in heart cells; format: cell-based
Description: Single cells of different types in culture were prepared from biopsies of human, chick and rabbit. Known and accepted methods for the isolation of fast Na^+ current, T, L and R-type Ca^2+ channels as well as delayed outward K^+ current were used (Bkaily 1994, supra).
The compounds to be tested are added to the appropriate extracellular solution after recording a stable ionic current or normal steady-state level of […]. The effect of different concentrations of compounds are tested on the different type of current and [Ca]i of the different cell types. The effect of each concentration of the compounds in function of the time of exposure are then determined. Once the steady-state effect is reached, the second concentration is added, etc.
In another series of experiments (n=7), the effect of different concentrations of MV8608 were tested on the T-type Ca^2+ current (ICa) using the whole-cell voltage clamp technique and classical experimental conditions described elsewhere by the inventors (Bkaily G. et al., 1991, supra; 1992, supra; 1993, supra). […] As it can be seen in that figure, the inset effect of MV8608 in T-type ICa is immediate.

anaesthetized guinea pig = experiment: Anaesthetized guinea pig, PAF bronchoconstriction and hypotension; format: in vivo
Source text: (§3) On the other hand, in vivo administered PAF, induced a marked hypotension in the anaesthetized rat and guinea pig.

anaesthetized rat = experiment: Anaesthetized rat, blood pressure and PAF hypotension; format: in vivo; settings: anaesthetized rat
Source text: as §3

tail-flick = experiment: Tail-flick in mice; format: in vivo; settings: i.p.
[6] = 100 nmol/paw, rats treated 30 days prior

Compound: C[C@]12CC[C@H](O)CC1=CC[C@@H]1[C@@H]2CC[C@]2(C)[C@H]3[C@@H]4OC[C@H]3O[C@@H](O)[C@]12O4 [MV8608, (15R, 16R, 20S)-14, 16:15,20:16,21-triepoxi-15,16-seco 14β, 17α-pregn-5-ene-3β, 15-diol]
- sustained increase of [Ca]i (R-type Ca^2+ channel [1]; BK 10^−6M and PAF 10^−9M): blockade
- inhibition of BK-induced contraction of rat uterus [2]: selective in its ability to inhibit the contraction of rat uterus induced by BK
- basal [Ca]i (R-type Ca^2+ channel [3]): decrease of basal sustained increase of [Ca]i
- response to ACh (arterial) and AngII (venous) [4]: unaffected
- PAF-induced responses (arterial vasodilatation, venconstriction) ([4]; 1 μM in FIG. 24): concentration-dependent inhibition; also recorded: blocked PAF
- sustained increase of [Ca]i (R-type Ca^2+ channel [5]): blockade
- PAF-induced paw oedema (rat paw oedema; 100 nmol/paw): consistently inhibited
- PGE2-induced paw oedema (rat paw oedema; 100 nmol/paw): partially inhibited
- substance P-induced paw oedema (rat paw oedema; 100 nmol/paw): unaffected
- bradykinin-induced paw oedema (rat paw oedema; [6]): significantly inhibited
- des-Arg^9-BK-induced paw oedema (rat paw oedema; [6]): significantly inhibited
- carrageenan-induced paw oedema (rat paw oedema; 10 and 100 nmol/paw): significantly prevented
- dextran-induced paw oedema (rat paw oedema; 10 and 100 nmol/paw): significantly prevented
- histamine-induced paw oedema (rat paw oedema; 10 and 100 nmol/paw): significantly prevented
- potentiation of paw oedema by low dose des-Arg^9-BK plus PAF (rat paw oedema; 10 and 100 nmol/paw): prevented the potentiation
- potentiation of paw oedema by low dose des-Arg^9-BK plus PGE2 (rat paw oedema; 10 and 100 nmol/paw): prevented the potentiation
- serotonin-induced paw oedema (rat paw oedema; 10 and 100 nmol/paw): significantly prevented
- des-Arg^9-bradykinin-induced paw oedema (rat paw oedema): dose-related inhibition
- ovalbumin-induced paw oedema (rat paw oedema; 10 and 100 nmol/paw, actively sensitised animals): inhibited significantly
- bradykinin-induced hindpaw oedema (rat paw oedema; 10 and 100 nmol/paw, animals treated with LPS): no significant effect
- overall effect on T-type ICa (T-type Ca^2+ current; 10^−9M and 10^−7M, heart cells): very weak depressor; also recorded: relative weak depressing effect
- effect on T-type ICa amplitude (T-type Ca^2+ current; 10^−9M to 10^−7M, n=7): had no effect

Compound: COC1CC(OC2C(C)OC(O[C@H]3CC[C@@]4(C)C(=CC[C@@H]5[C@@H]4CC[C@]4(C)[C@H]6[C@@H]7OC[C@H]6O[C@@H](O)[C@]54O7)C3)CC2OC)OC(C)C1OC1CC(OC)C(OC2CC(OC)C(OC3OC(C)C(OC(C)=O)C(OC)C3OC(C)=O)C(C)O2)C(C)O1 (some centres unmarked) [MV8612]
- sustained increase of [Ca]i (R-type Ca^2+ channel [1]; sustained depolarization and ET-1 10^−9M): blockade
- intrinsic hypotensive effect (anaesthetized guinea pig; guinea pig): devoid of marked intrinsic effect
- bronchoconstrictive responses to PAF (anaesthetized guinea pig; pretreatment): abolishes
- hypotensive effects of PAF (anaesthetized guinea pig; pretreatment): very significantly reduced; also recorded: abolishes
- hypotensive effect of PAF after withdrawal of treatment (anaesthetized guinea pig; same animal): fully restored
- hypotensive effect of PAF (anaesthetized rat): Identical inhibition
- oedema by bradykinin plus PAF (rat paw oedema; 10 nmol/paw): did not interfere
- oedema by low dose bradykinin plus PGE2 (rat paw oedema; 10 nmol/paw): significantly inhibited
- oedema by low dose bradykinin plus calcitonin gene related peptide (rat paw oedema; 10 nmol/paw): significantly inhibited
- oedema by low dose bradykinin plus prostacyclin (rat paw oedema; 10 nmol/paw): significantly inhibited
- PAF-mediated paw oedema (rat paw oedema; 10 and 100 nmol/paw): only a minimal inhibition
- PGE2-induced paw oedema (rat paw oedema; 10 and 100 nmol/paw): dose-dependently inhibited
- bradykinin-induced paw oedema (rat paw oedema; 10 and 100 nmol/paw): significantly inhibited
- carrageenan-induced paw oedema (rat paw oedema; 10 and 100 nmol/paw): dose-dependently inhibited
- substance P-mediated paw oedema (rat paw oedema; 10 and 100 nmol/paw): only a minimal inhibition
- tyr^8-bradykinin-induced paw oedema (rat paw oedema; 10 and 100 nmol/paw): significantly inhibited
- des-Arg^9-bradykinin-induced paw oedema (rat paw oedema): no significant effect
- bradykinin-induced oedema in animals treated with cyprohetadine or compound 48/80 (rat paw oedema; intraperitoneal injection (FIG. 44)): dose-related inhibition was still observed
- duration of inhibition of bradykinin oedema (rat paw oedema; subplantar): at least 2 h
- onset of inhibition of bradykinin oedema (rat paw oedema; subplantar): 30 min
- bradykinin oedema in controlateral paw treated with saline (rat paw oedema; systemic effect of subplantar injection): significant anti-oedemagenic action
- ID50 TAIL-FLICK (tail-flick): no effect
